Laboratory results reported in patent publication US20160015786A1, “MOBILIZING AGENTS AND USES THEREFOR” (MATER MEDICAL RESEARCH INSTITUTE LIMITED, priority 2013, published 2016).

What was measured:
Assay type in all cases: in vivo, C57BL/6 mice
[1] = tested on: colony-forming cells (CFCs); test: Mobilization of colony-forming cells (CFC/CFU) to blood and spleen, colony assays; details: for number of colony forming units mobilized to the spleen / total number (blood and spleen) of mobilized CFUs: Example 8: H and J 60 mg/kg, K 100 mg/kg
Protocol: Mobilization of colony-forming cells (CFCs) to the blood and spleen were measured (FIG. 1B).
This was divided into two experiments in which G-CSF was administered for 2 days in one experiment and 4 days in the other (FIG. 2). […] Mobilization of CFCs, phenotypic Lin^−CD41^−Sca1^+Kit^+ HSPCs and Lin^−CD41^− Sca1^+Kit^+CD48^−CD150^+ HSCs were measured in blood and spleens.
Additional HIF-α potentiating agents in the form of PHD inhibitors were tested for their ability to enhance mobilization induced by G-CSF.
(§1) At the end of treatment, blood was harvested by cardiac puncture, mice were sacrificed by cervical dislocation and spleens harvested. Femurs were removed, cleaned and the bone marrow was flushed with 1 mL PBS+10% newborn calf serum (NCS).
The number of phenotypic hematopoietic stem and progenitor cells remaining in the bone marrow following treatment was measured by flow cytometry using antibodies specific for lineage markers (CD3, CD5, CD45R/B220, F4/80, Gr1, CD41, Ter119), Sca-1, Kit, CD48 and CD150. Similarly, the number of phenotypic hematopoietic stem cells mobilized into the blood and spleen were measured. Colony assays were also performed on blood and spleen to determine the number of colony forming cells per mL of blood and per spleen. […] Levels of significance for differences were calculated using the Student's t-test.
All procedures were approved by the animal experimentation ethics committee of the University of Queensland. […] Plerixafor (AMD3100 octohydrochloride, Tocris Bioscience, Bristol, UK) was injected intraperitoneally as a single 16 mg/kg dose corresponding to 10 mg/kg of AMD3100 base. Tissues were harvested 1 h after Plerixafor administration. […] Control mice were injected with an equivalent volume of saline. At specified time-points, mice were anesthetized with isoflurane before cardiac puncture to harvest blood. Mice were then euthanized by cervical dislocation and BM and bones harvested.
Optimal concentrations of mouse IL-3, IL-6 and soluble kit ligand were added as conditioned media from stably transfected BHK cell lines. Colonies were counted after 7 days culture at 37° C. in a humidified incubator containing 5% CO2.

[2] = tested on: hematopoietic stem and progenitor cells; test: Phenotypic HSCs, HSPCs and myeloid progenitors in blood, spleen and bone marrow by flow cytometry; details: for mobilization of myeloid progenitors (LKS−) to the blood / increase in mobilization of myeloid progenitors (LKS−) to the spleen / increase in number of HSPCs (LSK48+ and LSK) mobilized to the spleen / increase in number of phenotypic HSCs (LSK48−150+) mobilized to the spleen: Example 6: 20 mg/kg + G-CSF vs vehicle + G-CSF; for increase in mobilization of myeloid progenitors (LKS−) to the spleen / increase in number of HSPCs (LSK48+ and LSK) mobilized to the spleen / increase in number of phenotypic HSCs (LSK48−150+) mobilized to the spleen: FIGS. 8A-B; for total number of phenotypic HSPCs in the bone marrow: Example 6: 20 mg/kg once daily 3 days + rhuG-CSF 125 μg/kg twice daily 4 days vs vehicle + G-CSF, FIGS. 6A-B; for increase in total number of HSPCs (LSK48+ and LSK) mobilized from the bone marrow / increase in total number of myeloid progenitors (LKS−) mobilized from the bone marrow / increase in total number of phenotypic HSCs (LSK48−150+) mobilized from the bone marrow: Example 6: blood and spleen, 20 mg/kg + G-CSF vs vehicle + G-CSF, FIGS. 9A-B; for total number of HSPCs (LSK48+ and LSK) mobilized blood and spleen / total number of phenotypic HSCs (LSK48−150+) mobilized blood and spleen: Example 8: 60 mg/kg + G-CSF vs vehicle + G-CSF, FIGS. 14A-B
Protocol: (§2) Additional HIF-α potentiating agents in the form of PHD inhibitors were tested for their ability to enhance mobilization induced by G-CSF. Compound A, Compound B or Compound C, were tested in male, 7 weeks-old C57BL/6 mice. Mice were injected twice daily sub-cutaneously with rhuG-CSF at a dose of 125 μg/kg per injection for four days. Mice were gavaged with 20 mg/kg Compound A, Compound B, Compound C or vehicle control once daily for three days beginning on day 1 of the experiment.
as §1
The number of phenotypic hematopoietic stem and progenitor cells remaining in the bone marrow following treatment was measured by flow cytometry using antibodies specific for lineage markers (CD3, CD5, CD45R/B220, F4/80, Gr1, CD41, Ter119), Sca-1, Kit, CD48 and CD150. Similarly, the number of phenotypic hematopoietic stem cells mobilized into the blood and spleen were measured. Colony assays were also performed on blood and spleen to determine the number of colony forming cells per mL of blood and per spleen. All results are presented as mean f standard deviation with n=6 per groups. Levels of significance for differences were calculated using the Student's t-test.
All procedures were approved by the animal experimentation ethics committee of the University of Queensland. All experiments were performed on nine to twelve-week old C57BL/6 male mice or genetically modified mice back-crossed at least 10 times into C57BL/6. Recombinant human G-CSF (Amgen, Thousand Oaks, Calif.) was injected twice daily subcutaneously at 125 μg/kg per injection for up to 4 consecutive days. Plerixafor (AMD3100 octohydrochloride, Tocris Bioscience, Bristol, UK) was injected intraperitoneally as a single 16 mg/kg dose corresponding to 10 mg/kg of AMD3100 base. Tissues were harvested 1 h after Plerixafor administration. […] Compounds H and J were administered at 60 mg/kg and Compound K was administered at 100 mg/kg. Control mice were injected with an equivalent volume of saline. At specified time-points, mice were anesthetized with isoflurane before cardiac puncture to harvest blood. Mice were then euthanized by cervical dislocation and BM and bones harvested.
Following flushing with PBS plus 2% NCS, enriched central BM cells were pelleted at 370×g for 5 minutes at 4° C. and resuspended in CD16/CD32 hybridoma 2.4G2 supernatant to block IgGFc receptors. HSCs were stained with the biotinylated lineage antibody cocktail (CD3, CD5, B220, CD11b, Gr-1, Ter119) and biotinylated CD41 together with streptavidin (SAV)-Pacific Blue, anti-Sca-1-PECY7, anti-KIT-APC, CD48-FITC and CD150-PE as previously described (17). Data were acquired on a CyAn (Dako Cytomation) flow cytometer and analyzed following compensation with single color controls using FlowJo software (Tree Star, Ashland, Oreg.).

white blood cells = test: White blood cell number per mL of blood after mobilization treatment; details: Example 6: 20 mg/kg + G-CSF vs vehicle + G-CSF; FIG. 11
Protocol: as §2, §1

[3] = Spleen weight after mobilization treatment
Protocol: as §2, with “Mice were gavaged with 20 mg/kg Compound A, Compound B, Compound C or vehicle control once daily for three days beginning on day 1 of the experiment.” left out
as §1

[4] = Example 6: 20 mg/kg + G-CSF vs vehicle + G-CSF, FIG. 10
[5] = Example 6: 20 mg/kg + G-CSF vs vehicle + G-CSF, FIG. 11
[6] = Example 7: 20 mg/kg + G-CSF vs vehicle + G-CSF, FIGS. 12A-B
[7] = + G-CSF vs vehicle + G-CSF, FIG. 15
[8] = Example 8: H and J 60 mg/kg, K 100 mg/kg, + G-CSF vs vehicle + G-CSF

Structure (SMILES)	number of colony forming units mobilized to the blood [1, 4]	mobilization of myeloid progenitors (LKS−) to the blood [2]	increase in mobilization of myeloid progenitors (LKS−) to the spleen [2]	increase in number of HSPCs (LSK48+ and LSK) mobilized to the spleen [2]	increase in number of phenotypic HSCs (LSK48−150+) mobilized to the spleen [2]	total number of phenotypic HSPCs in the bone marrow [2]	increase in total number of HSPCs (LSK48+ and LSK) mobilized from the bone marrow [2]	increase in total number of myeloid progenitors (LKS−) mobilized from the bone marrow [2]	increase in total number of phenotypic HSCs (LSK48−150+) mobilized from the bone marrow [2]	number of white blood cells per mL of blood (white blood cells)	increase in spleen weight [3, 5]	number of colony forming units mobilized to the spleen [1, 7]	total number (blood and spleen) of mobilized CFUs [1, 7]	total number of HSCs and progenitors in the BM [2, 8]	further results
N#Cc1nc(C(=O)NCC(=O)O)c(O)c2c(Oc3ccc(Cl)cc3)cccc12 [Compound A, {[5-(4-Chloro-phenoxy)-1-cyano-4-hydroxy-isoquinoline-3-carbonyl]-amino}-acetic acid]	significantly increased	did not significantly alter	approximately 3 fold	approximately 2 fold	approximately 2 fold	did not significantly alter	approximately 2 fold	approximately 6 fold	approximately 2 fold	significant increase	approximately 2 fold				
N#Cc1nc(C(=O)NCC(=O)O)c(O)c2c(Oc3ccccc3)cccc12 [Compound B, [(1-Cyano-4-hydroxy-5-phenoxy-isoquinoline-3-carbonyl)-amino]-acetic acid]	no significant change	did not significantly alter	approximately 3 fold	approximately 2 fold	approximately 2 fold	did not significantly alter	approximately 2 fold	approximately 6 fold	approximately 2 fold	significant increase	approximately 2 fold				number of CFUs mobilized to the spleen [1, 4]: statistically significant; total number of CFUs mobilized, relative to Compound A or Compound C with G-CSF ([1]; Example 6: 20 mg/kg + G-CSF, FIG. 10): comparable
N#Cc1nc(C(=O)NCC(=O)O)c(O)c2ccn(Cc3ccccc3F)c12 [Compound C, {[7-Cyano-1-(2-fluoro-benzyl)-4-hydroxy-1H-pyrrolo[2,3-c]pyridine-5-carbonyl]-amino}-acetic acid]	significantly increased	did not significantly alter	approximately 3 fold	approximately 2 fold	approximately 2 fold	did not significantly alter	approximately 2 fold	approximately 6 fold	approximately 2 fold	significant increase	approximately 2 fold				
O=c1c(-n2ccnn2)c[nH]n1-c1cc(N2CCOCC2)ncn1 [Compound F, 2-(6-Morpholin-4-yl-pyrimidin-4-yl)-4-[1,2,3]triazol-1-yl-1,2-dihydro-pyrazol-3-one]															number of CFUs mobilized from the bone marrow to the blood and spleen ([1]; Example 7: D 60 mg/kg, E and F 20 mg/kg, + G-CSF vs vehicle + G-CSF, FIG. 13): significantly increased; total number of HSCs (LSK48-150+) mobilized from the bone marrow [2, 6]: significant increase; total number of HSPCs (LSK48+ and LSK) mobilized from the bone marrow [2, 6]: significant increase; total number of HSCs and progenitors in the BM ([2]; Example 7: Compound D 60 mg/kg, E and F 20 mg/kg, + G-CSF vs vehicle + G-CSF): did not significantly alter; total number of myeloid progenitors (LKS−) mobilized ([2]; Example 7: D 60 mg/kg, E and F 20 mg/kg, + G-CSF vs vehicle + G-CSF, FIGS. 12A-B): significant increase; increase in spleen weight ([3]; Example 7: D 60 mg/kg, E and F 20 mg/kg, + G-CSF vs vehicle + G-CSF): approximately 2 fold
O=C(O)CNC(=O)c1ncc2cc(Oc3ccccc3)ccc2c1O [Compound H, [(4-Hydroxy-7-phenoxy-isoquinoline-3-carbonyl)-amino]-acetic acid]												significant increase	significant increase	did not significantly alter	total number of HSPCs (LSK48+ and LSK) mobilized blood and spleen [2]: significant increase; total number of phenotypic HSCs (LSK48−150+) mobilized blood and spleen [2]: significant increase
COc1ccc(Oc2ccc3c(O)c(C(=O)NCC(=O)O)ncc3c2)cc1 [Compound J, {[4-Hydroxy-7-(4-methoxy-phenoxy)-isoquinoline-3-carbonyl]-amino}-acetic acid]												significant increase	significant increase	did not significantly alter	number of colony forming units mobilized to the blood ([1]; Example 8: 60 mg/kg + G-CSF vs vehicle control, FIG. 15): significant increase; total number of HSPCs (LSK48+ and LSK) mobilized blood and spleen [2]: significant increase; total number of phenotypic HSCs (LSK48−150+) mobilized blood and spleen [2]: significant increase
O=C(O)CNC(=O)c1ncc(-c2cccc(F)c2)cc1O [Compound K, {[5-(3-Fluoro-phenyl)-3-hydroxy-pyridine-2-carbonyl]-amino}-acetic acid]												no significant change	no significant change	did not significantly alter	
